In US20090258883A1, “1H-Indole-Pyridinecarboxamide and 1H-Indole-Piperidinecarboxamide Compounds” (LES LABORATOIRES SERVIER, priority 2005, published 2009):
Marks after values point to notes of the source that are not given here.

Experiments:
[1] = target: 5HT receptors (type 5HT2A) (Homo sapiens, UniProt P28223); test: Affinity for receptors, displacement of labelled specific ligand: 5HT2A; type: binding; settings: for inhibition at 10 µM: concentration 10^−5 M; for inhibition at 0.1 µM: concentration 10^−7 M
[2] = target: dopaminergic receptors (type D1) (Homo sapiens, UniProt P21728); test: Affinity for receptors, displacement of labelled specific ligand: D1; type: binding; settings: for inhibition at 10 µM: concentration 10^−5 M; for inhibition at 0.1 µM: concentration 10^−7 M
[3] = target: dopaminergic receptors (type D2) (Homo sapiens, UniProt P14416); test: Affinity for receptors, displacement of labelled specific ligand: D2; type: binding; settings: for inhibition at 10 µM: concentration 10^−5 M; for inhibition at 0.1 µM: concentration 10^−7 M
[4] = system: tyrosine hydroxylase (TH) protein; test: Induction of tyrosine hydroxylase (TH) in LC, SN and VTA of the mouse brain; type: in vivo, Balb/C mouse; settings: for amount of TH in LC section 1: LC section 1 (posterior-to-anterior); for amount of TH in LC section 1 / amount of TH, LC, total: i.p. 20 mg/kg; for amount of TH in LC section 1 / amount of TH in LC section 2 / amount of TH in LC section 3 / amount of TH in LC section 4 / amount of TH in LC section 5 / amount of TH in LC section 6 / amount of TH in LC section 7 / amount of TH in LC section 8 / amount of TH in LC section 9 / amount of TH in LC section 10 / amount of TH in LC section 11 / amount of TH, LC, total: three days after single injection; for amount of TH in LC section 1 / amount of TH in LC section 2 / amount of TH in LC section 3 / amount of TH in LC section 4 / amount of TH in LC section 5 / amount of TH in LC section 6 / amount of TH in LC section 7 / amount of TH in LC section 8 / amount of TH in LC section 9 / amount of TH in LC section 10 / amount of TH in LC section 11 / amount of TH, LC, total / TH induction in the SN / TH induction in the VTA: relative to mean value of control group; for amount of TH in LC section 2: LC section 2, i.p. 20 mg/kg; for amount of TH in LC section 3: LC section 3, i.p. 20 mg/kg; for amount of TH in LC section 4: LC section 4, i.p. 20 mg/kg; for amount of TH in LC section 5: LC section 5, i.p. 20 mg/kg; for amount of TH in LC section 6: LC section 6, i.p. 20 mg/kg; for amount of TH in LC section 7: LC section 7, i.p. 20 mg/kg; for amount of TH in LC section 8: LC section 8, i.p. 20 mg/kg; for amount of TH in LC section 9: LC section 9, i.p. 20 mg/kg; for amount of TH in LC section 10: LC section 10, i.p. 20 mg/kg; for amount of TH in LC section 11: LC section 11, i.p. 20 mg/kg; for TH induction in the SN: substantia nigra; for TH induction in the SN / TH induction in the VTA: single i.p. injection; for TH induction in the VTA: ventral tegmental area
From the text: A search is made among the compounds for those which are capable of bringing about an increase in the tyrosine hydroxylase (TH) protein in the locus coeruleus (LC), substantia nigra (SN) and ventral tegmental area (VTA) of the brain of the Balb/C mouse. The animals used are consanguinal male mice of the pure Balb/C strain (Charles River Laboratories) aged 6 weeks at the time of treatment.
The mice are given a single injection, by the intraperitoneal route, of the compound under test, dissolved in 0.04M HCl solution (corresponding control: 0.04M HCl), if the compound is sufficiently soluble, or in olive oil 90%/DMSO 10% (corresponding control: olive oil 90%/DMSO 10%) for compounds that are insoluble in an aqueous medium. The volume injected is 100 μl. The test groups comprise 10 animals.
Three days after the injection of each compound, all the animals are sacrificed by decapitation. The brains are removed and then frozen in an isopentane solution at −30° C. for 45 seconds and subsequently stored at −80° C.
Serial coronal sections 20 microns thick are then taken using a cryomicrotome. Each structure of interest is then sampled along the posterior-anterior axis of the brain by taking sections at 80-micron spacings in the case of the LC and at 80- or 160-micron spacings in the case of the VTA and SN. The limits of those structures are those described in the atlas of Franklin and Paxinos. The total proteins of each of those sections are transferred by direct collection of the sections to a nitrocellulose filter (Millipore). The amounts of TH present in each sample are measured by immunochemistry, fluorimetric detection and image analysis.

[5] = system: confluent endothelial cells from bovine capillaries; test: Predicted crossing of the blood-brain barrier (BBB); type: in vitro ADME; set-up: key: high; intermediate; low; settings: 20 μM in upper compartment, filter with bovine capillary endothelial cells, 10-60 minutes, LC-MS-MS
Procedure: The substances are incubated at 20 μM in the upper compartment of a double container, the upper compartment being separated from the lower compartment either solely by a polycarbonate filter or by the same filter covered with confluent endothelial cells from bovine capillaries. Evaluation of the permeability kinetics is carried out by means of LC-MS-MS quantification of the unchanged substance in the lower compartment after 10, 20, 30, 40 and 60 minutes.
The results are given in the form of the categories: high, intermediate, low.

muscarinic (M) receptors = test: Affinity for receptors, displacement of labelled specific ligand: muscarinic; type: binding; settings: concentration 10^−5 M
Procedure: (§1) The affinity for receptors is determined according to customary methods of relations between the specific ligand and the receptor, which may be of animal origin or a human recombinant. The affinity was determined by the method of displacement of the labelled specific ligand by the compound under test and expressed by the dissociation constant KI. The receptor affinity was accordingly studied for 28 conventional receptors.

[6] = system: sigma (σ) receptors (ligand: haloperidol); test: Affinity for receptors, displacement of labelled specific ligand: sigma; type: binding
Procedure: as §1

[7] = Predicted metabolic stability, mouse hepatic microsomes; type: in vitro ADME; settings: 10^−7 M, mouse hepatic microsomes 0.33 mg of prot/ml, NADPH
Procedure: (§2) The predicted metabolic stability is tested by incubation of the compounds at a concentration of 10^−7M in the presence of mouse, rat or human hepatic microsomes (0.33 mg of prot/ml). After addition of NADPH (nicotinamide adenine dinucleotide phosphate, reduced form), samples are taken at 0, 5, 15, 30 and 60 minutes. The enzymatic reaction is stopped using methanol (V/V). The protein is precipitated by centrifugation and the supernatant is analysed by LC-MS-MS.

[8] = Predicted metabolic stability, human hepatic microsomes; type: in vitro ADME; settings: 10^−7 M, human hepatic microsomes 0.33 mg of prot/ml, NADPH
Procedure: as §2

dopaminergic receptors (type D1), sequence (P21728 whole entry): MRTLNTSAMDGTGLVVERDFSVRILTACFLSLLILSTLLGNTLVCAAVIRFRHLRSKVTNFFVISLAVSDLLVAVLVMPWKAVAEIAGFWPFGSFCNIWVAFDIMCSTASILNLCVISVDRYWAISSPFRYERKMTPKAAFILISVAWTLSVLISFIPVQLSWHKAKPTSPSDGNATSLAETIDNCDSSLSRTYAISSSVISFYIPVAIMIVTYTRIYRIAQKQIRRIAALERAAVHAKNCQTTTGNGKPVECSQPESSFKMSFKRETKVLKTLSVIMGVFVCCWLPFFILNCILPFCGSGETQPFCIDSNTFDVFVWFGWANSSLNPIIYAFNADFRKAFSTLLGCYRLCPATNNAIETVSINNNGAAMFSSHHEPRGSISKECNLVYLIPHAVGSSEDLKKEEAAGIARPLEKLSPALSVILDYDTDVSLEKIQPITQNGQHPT
5HT receptors (type 5HT2A), sequence (P28223 whole entry): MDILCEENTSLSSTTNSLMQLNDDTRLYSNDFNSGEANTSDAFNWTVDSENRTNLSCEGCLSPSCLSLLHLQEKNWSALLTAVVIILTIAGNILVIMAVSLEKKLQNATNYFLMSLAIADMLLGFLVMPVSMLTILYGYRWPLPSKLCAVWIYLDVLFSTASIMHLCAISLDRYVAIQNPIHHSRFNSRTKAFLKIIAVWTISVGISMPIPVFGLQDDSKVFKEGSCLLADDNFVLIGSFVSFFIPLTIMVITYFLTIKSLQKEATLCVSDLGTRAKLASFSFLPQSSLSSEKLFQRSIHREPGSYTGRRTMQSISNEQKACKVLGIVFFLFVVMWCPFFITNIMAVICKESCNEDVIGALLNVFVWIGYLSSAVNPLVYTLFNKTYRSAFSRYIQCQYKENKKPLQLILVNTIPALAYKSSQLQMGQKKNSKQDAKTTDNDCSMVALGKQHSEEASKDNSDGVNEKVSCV
dopaminergic receptors (type D2), sequence (P14416 whole entry): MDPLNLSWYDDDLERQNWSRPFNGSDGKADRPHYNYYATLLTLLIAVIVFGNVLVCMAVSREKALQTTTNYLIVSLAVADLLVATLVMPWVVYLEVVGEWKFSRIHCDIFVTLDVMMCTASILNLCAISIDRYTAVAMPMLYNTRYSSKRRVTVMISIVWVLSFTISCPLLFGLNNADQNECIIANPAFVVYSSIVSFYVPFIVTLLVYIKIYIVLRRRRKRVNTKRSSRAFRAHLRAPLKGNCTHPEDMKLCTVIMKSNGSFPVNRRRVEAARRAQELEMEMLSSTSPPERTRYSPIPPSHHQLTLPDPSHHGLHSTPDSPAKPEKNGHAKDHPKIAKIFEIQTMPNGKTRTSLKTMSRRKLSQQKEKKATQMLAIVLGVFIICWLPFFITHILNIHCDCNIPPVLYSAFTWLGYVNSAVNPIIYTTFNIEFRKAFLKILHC

SMILES | inhibition at 10 µM [1] | inhibition at 0.1 µM [1] | inhibition at 10 µM [2] | inhibition at 0.1 µM [2] | inhibition at 10 µM [3] | inhibition at 0.1 µM [3] | amount of TH in LC section 1 [4] | amount of TH in LC section 2 [4] | amount of TH in LC section 3 [4] | amount of TH in LC section 4 [4] | amount of TH in LC section 5 [4] | amount of TH in LC section 6 [4] | amount of TH in LC section 7 [4] | amount of TH in LC section 8 [4] | amount of TH in LC section 9 [4] | amount of TH in LC section 10 [4] | amount of TH in LC section 11 [4] | amount of TH, LC, total [4] | TH induction in the SN [4] | TH induction in the VTA [4] | also measured
CN1CCC=C(C(=O)Nn2ccc3cc(F)ccc32)C1 [Example 7, N-(5-fluoro-1H-indol-1-yl)-1-methyl-1,2,5,6-tetrahydropyridine-3-carboxamide] | < 10% | < 10% | < 10% | < 10% | < 10% | < 10% | 113% | 139* % | 112% | 119% | 138** % | 122% | 141** % | 131* % | 96% | 125% | 106% | 123** % | 88* % | 94% | TH induction in the LC, in words [4]: induce TH only in the LC; degree of crossing of the BBB (category) [5]: high
C=CCN1CCCC(C(=O)Nn2ccc3cc(Cl)ccc32)C1 (stereo not shown) [Example 12, 1-Allyl-N-(5-chloro-1H-indol-1-yl)piperidine-3-carboxamide] | < 10% | < 10% | < 10% | < 10% | < 10% | < 10% | 57% | 70% | 80% | 110% | 114% | 92% | 95% | 82% | 98% | 94% | 26% | 90% | 122* % | 95% | % inhibition M (muscarinic (M) receptors): 51%; % inhibition σ ([6]; concentration 10^−5 M): 85%; % inhibition σ ([6]; concentration 10^−7 M): 18%; TH induction in the LC, in words [4]: without increasing expression of the protein; TH induction in the SN, in words [4]: induce TH in the SN; TH induction in the VTA, in words [4]: without increasing expression of the protein
CN(C)CCN1CCCC(C(=O)Nn2ccc3ccccc32)C1 (stereo not shown) [Example 22, 1-[2-(Dimethylamino)ethyl]-N-(1H-indol-1-yl)-3-piperidinecarboxamide] | – | – | – | – | – | – | 79% | 101% | 112% | 98% | 108% | 113% | 146** % | 120% | 135* % | 179** % | 145* % | 119** % | – | – | –
CN1CCN(CCN2CCCC(C(=O)Nn3ccc4ccccc43)C2)CC1 (stereo not shown) [Example 25, N-(1H-indol-1-yl)-1-[2-(4-methyl-1-piperazinyl)ethyl]-3-piperidine-carboxamide] | 14% | 12% | < 10% | < 10% | < 10% | < 10% | – | – | – | – | – | – | – | – | – | – | – | – | – | – | % inhibition M (muscarinic (M) receptors): 27%; % metabolic stability predicted using hepatic microsomes, Mouse [7]: 85%; % inhibition σ ([6]; concentration 10^−5 M): 100%; % inhibition σ ([6]; concentration 10^−7 M): 17%; % metabolic stability predicted using hepatic microsomes, Human [8]: 63%
CN1CCC=C(C(=O)NN2CCc3ccccc32)C1 [Example 15, N-(2,3-dihydro-1H-indol-1-yl)-1-methyl-1,2,5,6-tetrahydropyridine-3-carboxamide] | – | – | – | – | – | – | – | – | – | – | – | – | – | – | – | – | – | – | 91% | 88* % | –
O=C(Nn1ccc2ccccc21)C1CCCN(CCN2CCCCC2)C1 (stereo not shown) [Example 24, N-(1H-indol-1-yl)-1-[2-(1-piperidyl)ethyl]-3-piperidinecarboxamide] | – | – | – | – | – | – | 165* % | 157* % | 120% | 127% | 145* % | 131** % | 139* % | 116% | 139% | 96% | 94% | 129** % | – | – | degree of crossing of the BBB (category) [5]: high
CN1CC[C@H](C(=O)Nn2ccc3ccccc32)[C@H](c2ccc(F)cc2)C1 [Example 38, (3R,4S)-3-(4-Fluorophenyl)-N-(1H-indol-1-yl)-1-methylpiperidine-4-carboxamide] | – | – | – | – | – | – | – | – | – | – | – | – | – | – | – | – | – | – | – | – | melting point: 134 °C
O=C(Nn1ccc2ccccc21)C1CCCN(CCN2CCN(CCO)CC2)C1 (stereo not shown) [Example 26, 1-{2-[4-(2-Hydroxyethyl)-1-piperazinyl]ethyl}-N-(1H-indol-1-yl)-3-piperidinecarboxamide] | – | – | – | – | – | – | 152* % | 98% | 136** % | 107% | 154** % | 133* % | 127* % | 96% | 132% | 110% | 89% | 121** % | – | – | –
CN1CCC=C(C(=O)Nn2ccc3ccccc32)C1 [Example 1, N-(1H-indol-1-yl)-1-methyl-1,2,5,6-tetrahydropyridine-3-carboxamide] | < 10% | < 10% | < 10% | < 10% | < 10% | < 10% | 57% | 72% | 128% | 128% | 158* % | 152* % | 131% | 107% | 106% | 95% | 55% | 121% | 155** % | 125% | % inhibition M (muscarinic (M) receptors): 23%; % metabolic stability predicted using hepatic microsomes, Mouse [7]: 40%; % inhibition σ ([6]; concentration 10^−5 M): 44%; TH induction in the SN, in words [4]: markedly induces TH; TH induction in the VTA, in words [4]: markedly induces TH; TH induction in the medial LC (sections 4, 5 and 6), in words ([4]; medial LC): markedly induces TH; % metabolic stability predicted using hepatic microsomes, Human [8]: 70%; degree of crossing of the BBB (category) [5]: high
